In PubChem BioAssay AID1259411 (Chemical Carcinogenesis Research Information System (CCRIS), 2018):
The source made the active and inactive calls. No rule for the calls is given here.

System: rodent carcinogenicity bioassays, tumor incidence
Test: CCRIS carcinogenicity studies
How it was run: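 Archive of carcinogenicity, mutagenicity, tumor promotion and tumor inhibition results drawn from journals, NCI reports and other sources, expert-reviewed; covers 1985-2011 and is no longer updated.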

With `CN=[N+](C)[O-]` the carcinogen call (Species: MOUSE, Strain/Sex: A/J/MALE,FEMALE, Route: INTRAPERITONEAL INJECTION, Dose: 5, 10 MG/KG BW ONCE A WEEK FOR 4 WKS, Tumor Site: Type of Lesion: COLON: TUMORS (ADENOMA), % OF TUMOR BEARING MICE WAS 10X HIGHER IN 10 MG/KG GROUP) was “active; positive; all animals given 20 mg/kg died”, the carcinogen call (Species: MOUSE, Strain/Sex: A/J/MALE,FEMALE, Route: INTRAPERITONEAL INJECTION, Dose: 10 MG/KG ONCE WEEKLY FOR 2, 4, 8 WKS, Tumor Site: Type of Lesion: COLON: ADENOMA) was “active; positive; response of approximately 25% with 2 doses to almost 100% at 4 or 8 d” and the carcinogen call (Species: MOUSE, Strain/Sex: A/J/MALE,FEMALE, Route: SUBCUTANEOUS INJECTION, Dose: 10 MG/KG BW ONCE A WK FOR 4 WK, Tumor Site: Type of Lesion: COLON: ADENOMA) was “active; positive; almost 80% incidence”. For the same molecule, the carcinogen call (Species: MOUSE, Strain/Sex: AKR/J/MALE,FEMALE, Route: INTRAPERITONEAL INJECTION, Dose: 10 MG/KG BW WEEKLY FOR 2, 4, 8 WKS (STUDY DURATION: 6 MO), Tumor Site: Type of Lesion: COLON: ADENOMAS) was “only 5% of animals at 4 wk treatment developed tumors”, the carcinogen call (Species: MOUSE, Strain/Sex: AKR/J/MALE,FEMALE, Route: SUBCUTANEOUS, Dose: 10 MG/KG BW WEEKLY FOR 4 WK (STUDY DURATION: 6 MO), Tumor Site: Type of Lesion: COLON: ADENOMA) was “only about 5% developed tumors” and the carcinogen call (Species: MOUSE, Strain/Sex: ICR/MALE, Route: SUBCUTANEOUS, Dose: 0, 0.3 MG/MOUSE IN SALINE 1/WK FOR 20 WK (STUDY DURATION: 36 WK), Tumor Site: Type of Lesion: COLON: ADENOMA OR ADENOCARCINOMA, ADENOMA OR ADENOCARCINOMA OR CARCINOMA, RECTUM: CARCINOMA, BLOOD VESSELS: ANGIOMA OR A, Tumor Site: Type of Lesion: COLON: ADENOMA OR ADENOCARCINOMA, ADENOMA OR ADENOCARCINOMA OR CARCINOMA, RECTUM: CARCINOMA, BLOOD VESSELS: ANGIOMA OR A) was “active; positive”. For the same molecule, the carcinogen call (Species: MOUSE, Strain/Sex: SWR/J/MALE,FEMALE, Route: INTRAPERITONEAL INJECTION, Dose: 10 MG/KG BW FOR 2, 4, OR 8 WKS, ONCE A WK (STUDY DURATION: 6 MO), Tumor Site: Type of Lesion: COLON: ADENOMA) was “active; positive- tumor incidence 30-100%”, the carcinogen call (Species: MOUSE, Strain/Sex: SWR/J/MALE,FEMALE, Route: SUBCUTANEOUS INJECTION, Dose: 10 MG/KG BW ONCE A WK FOR 4 WK, Tumor Site: Type of Lesion: COLON: ADENOMA) was “active; positive; response about 30%” and the carcinogen call (Species: RAT, Strain/Sex: F344/FEMALE, Route: INTRAVESICULAR, Dose: 0, 2 MG IN 0.2 ML ETHANOL: DEIONIZED WATER (1:3) 2/WK FOR 22 WK (TOTAL DOSE 1.2 MMOL) (STUDY DURATION: LIFESPAN), Tumor Site: Type of Lesion: COLON: TUMOR, ZYMBAL GLAND: TUMOR) was “active; positive”. The carcinogen call (Species: RAT, Strain/Sex: F344/FEMALE, Route: SUBCUTANEOUS, Dose: 8 MG/KG 1/WK FOR 10 WK, Tumor Site: Type of Lesion: COLON: ADENOMA, CARCINOMA, ADENOCARCINOMA) was “active; positive”, the carcinogen call (Species: RAT, Strain/Sex: F344/MALE, Route: ORAL, Dose: 0, 1.0, 4.0 MG/WK IN DRINKING WATER FOR 30 WK (STUDY DURATION: LIFETIME), Dose: 0, 1.0, 4.0 MG/WK IN DRINKING WATER FOR 30 WK (STUDY DURATION: LIFETIME), Tumor Site: Type of Lesion: LIVER: CARCINOMA, SARCOMA, KIDNEY: INTERSTITIAL CELL SARCOMA OR NEUROSARCOMA OR RENAL CARCINOMA, COLON: ADENOMA OR CARCI, Tumor Site: Type of Lesion: LIVER: CARCINOMA, SARCOMA, KIDNEY: INTERSTITIAL CELL SARCOMA OR NEUROSARCOMA OR RENAL CARCINOMA, COLON: ADENOMA OR CARCI) was “active; positive” and the carcinogen call (Species: RAT, Strain/Sex: F344/MALE, Route: ORAL, Dose: 0, 10, 40 MG/ML IN A NEUTRAL DEIONIZED DRINKING WATER SOLUTION 5 D/WK FOR 30 WK (TOTAL DOSE 30; 120 MG) (STUDY DURATION:, Dose: 0, 10, 40 MG/ML IN A NEUTRAL DEIONIZED DRINKING WATER SOLUTION 5 D/WK FOR 30 WK (TOTAL DOSE 30; 120 MG) (STUDY DURATION:, Tumor Site: Type of Lesion: LIVER: CARCINOMA, HEMANGIOSARCOMA, KIDNEY: TUMOR, COLON: ADENOCARCINOMA, ADENOMA, Tumor Site: Type of Lesion: LIVER: CARCINOMA, HEMANGIOSARCOMA, KIDNEY: TUMOR, COLON: ADENOCARCINOMA, ADENOMA) was “active; positive”. For the same molecule, the carcinogen call (Species: RAT, Strain/Sex: SPRAGUE-DAWLEY/MALE, Route: SUBCUTANEOUS, Dose: 8 MG/KG 1/WK FOR 24 WK, Tumor Site: Type of Lesion: INTESTINES (LARGE AND SMALL): ADENOCARCINOMA) was “active; positive”, the carcinogen call (Species: RAT, Strain/Sex: STRAIN-BD, Route: SUBCUTANEOUS, Dose: >6 MG/KG ONCE, Tumor Site: Type of Lesion: COLON: ADENOCARCINOMA, KIDNEY: NEPHROBLASTOMA) was “active; positive” and the carcinogen call (Species: RAT, Strain/Sex: STRAIN-BD, Route: SUBCUTANEOUS, Dose: >6 MG/KG ONCE, Tumor Site: Type of Lesion: COLON: ADENOCARCINOMA, NERVOUS SYSTEM: NEUROBLASTOMA, KIDNEY: NEPHROBLASTOMA, Tumor Site: Type of Lesion: COLON: ADENOCARCINOMA, NERVOUS SYSTEM: NEUROBLASTOMA, KIDNEY: NEPHROBLASTOMA) was “active; positive”. For the same molecule, the carcinogen call (Species: RAT, Strain/Sex: WISTAR/MALE, Route: SUBCUTANEOUS, Dose: 0, 7.4 MG/KG IN 0.9% SALINE 1/WK FOR 10 WK ADMINISTERED TO RATS MAINTAINED ON NORMAL-PROTEIN (25% CASEIN), LOW-PROTEIN (, Tumor Site: Type of Lesion: COLON: TUMOR) was “active; positive”.
For `C[C@]12CC[C@@H]3c4ccc(O)cc4CC[C@H]3[C@@H]1CCC2=O`, the carcinogen call (Species: HAMSTER, Route: SUBCUTANEOUS, SUBCUTANEOUS IMPLANT, Tumor Site: Type of Lesion: KIDNEY) was “active; positive”, the carcinogen call (Species: HAMSTER, Strain/Sex: SYRIAN/MALE, Route: SUBCUTANEOUS IMPLANT, Dose: 0, 20 MG PELLET, SINGLE DOSE, Tumor Site: Type of Lesion: KIDNEY) was “active; positive” and the carcinogen call (Species: HAMSTER, Strain/Sex: SYRIAN/MALE, Route: SUBCUTANEOUS IMPLANT, Dose: 0, 20 MG IN PELLETS IMPLANTED EVERY 2.5 MO FOR 9 MO (STUDY DURATION: 9 MO), Tumor Site: Type of Lesion: KIDNEY: TUMOR) was “active; positive”. For the same molecule, the carcinogen call (Species: HAMSTER, Strain/Sex: SYRIAN/MALE, Route: SUBCUTANEOUS, Tumor Site: Type of Lesion: KIDNEY, PITUITARY GLAND: ADENOMA) was “active; positive”, the carcinogen call (Species: HUMAN, Tumor Site: Type of Lesion: UTERUS (ENDOMETRIUM)) was “active; positive” and the carcinogen call (Species: MOUSE, Route: ORAL, SUBCUTANEOUS, DERMAL, SUBCUTANEOUS IMPLANT, Tumor Site: Type of Lesion: MAMMARY GLAND) was “active; positive”. The carcinogen call (Species: MOUSE, Strain/Sex: C3H, C3HE(MTV-)/MALE, Route: ORAL, Dose: 125, 2000 UG/L IN DRINKING WATER, Tumor Site: Type of Lesion: MAMMARY GLAND) was “active; positive”, the carcinogen call (Species: MOUSE, Strain/Sex: C3R3(MTV+)/MALE, Route: DIET, Dose: 0, 0.06, 0.6, 6 UG/D, Tumor Site: Type of Lesion: MAMMARY GLAND) was “active; positive” and the carcinogen call (Species: MOUSE, Strain/Sex: GRS/AFIB(MTV+)/FEMALE, Route: ORAL, Dose: 0, 0.5 UG/ML FOR 14-25 WK IN DRINKING WATER, Tumor Site: Type of Lesion: UTERUS) was “active; positive”. For the same molecule, the carcinogen call (Species: RAT, Route: SUBCUTANEOUS, SUBCUTANEOUS IMPLANT, Tumor Site: Type of Lesion: ADRENAL GLAND, KIDNEY, MAMMARY GLAND, PITUITARY GLAND, URINARY BLADDER, Tumor Site: Type of Lesion: ADRENAL GLAND, KIDNEY, MAMMARY GLAND, PITUITARY GLAND, URINARY BLADDER) was “active; positive”, the carcinogen call (Species: RAT, Strain/Sex: AUGUST/MALE,FEMALE, Route: SUBCUTANEOUS IMPLANT, Dose: 8-12 MG PELLET, SINGLE DOSE, Tumor Site: Type of Lesion: MAMMARY GLAND) was “active; positive” and the carcinogen call (Species: RAT, Strain/Sex: AXC/MALE,FEMALE, Route: SUBCUTANEOUS IMPLANT, Dose: 8-12 MG PELLET, SINGLE DOSE, Tumor Site: Type of Lesion: MAMMARY GLAND) was “active; positive”. The carcinogen call (Species: RAT, Strain/Sex: COPENHAGEN/MALE,FEMALE, Route: SUBCUTANEOUS IMPLANT, Dose: 8-12 MG PELLET, SINGLE DOSE, Tumor Site: Type of Lesion: URINARY BLADDER) was “active; positive” and the carcinogen call (Species: RAT, Strain/Sex: F344/MALE,FEMALE, Route: SUBCUTANEOUS IMPLANT, Dose: 8-12 MG PELLET, SINGLE DOSE, Tumor Site: Type of Lesion: MAMMARY GLAND) was “active; positive”.
In the case of `O=[N+]([O-])c1cccc2ccccc12`, the carcinogen call (Species: MOUSE, Strain/Sex: B6C3F1/FEMALE, Route: ORAL, Dose: 0, 0.06, 0.12% OF DIET, Dose: 0, 0.06, 0.12% OF DIET) is reported as “inactive; negative”, the carcinogen call (Species: MOUSE, Strain/Sex: B6C3F1/MALE, Route: ORAL, Dose: 0, 0.06, 0.12% OF DIET, Dose: 0, 0.06, 0.12% OF DIET) is reported as “inactive; negative” and the carcinogen call (Species: RAT, Strain/Sex: F344/FEMALE, Route: ORAL, Dose: 0, 0.06, 0.18% OF DIET, Dose: 0, 0.06, 0.18% OF DIET) is reported as “inactive; negative”. For the same molecule, the carcinogen call (Species: RAT, Strain/Sex: F344/MALE, Route: ORAL, Dose: 0, 0.06, 0.18% OF DIET, Dose: 0, 0.06, 0.18% OF DIET) was “inactive; negative”.
